In patent publication US20250186541A1, “DLL3 TARGETING PEPTIDES AND CONSTRUCTS THEREOF” (MARIANA ONCOLOGY INC., priority 2023, published 2025):
Bridge positions count the residues as written; N and C are the ends. Square brackets hold non-standard residues; d marks the D form. Side chains are listed from the residue outwards. Peptide text beside a SMILES is read from it. * marks the point of attachment. DOTA = O=C(O)CN1CCN(CC(=O)O)CCN(CC(=O)*)CCN(CC(=O)O)CC1; Trp(7-aza) = N[C@@H](Cc1c[nH]c2ncccc12)C(=O)O; Pro(trans-4-F) = O=C(O)[C@@H]1C[C@@H](F)CN1; 1Nal = N[C@@H](Cc1cccc2ccccc12)C(=O)O; 2Nal = N[C@@H](Cc1ccc2ccccc2c1)C(=O)O; Phe(2-F) = N[C@@H](Cc1ccccc1F)C(=O)O; Phe(2-Me) = Cc1ccccc1C[C@H](N)C(=O)O; Ala(cPr) = N[C@@H](CC1CC1)C(=O)O; Trx = NC[C@H]1CC[C@H](C(=O)O)CC1; tBuAla = CC(C)(C)C[C@H](N)C(=O)O; 3Pal = N[C@@H](Cc1cccnc1)C(=O)O; Chg = N[C@H](C(=O)O)C1CCCCC1; αMeP = C[C@@]1(C(=O)O)CCCN1

These compounds were tested against T1, human DLL3 (Homo sapiens, UniProt Q9NYJ7) (assay: Affinity determination by Surface Plasmon Resonance (SPR), Biacore, 1:1 binding model). Settings: biotinylated human DLL3 on streptavidin chip, 25° C.; NB = nonbinding.
T1 construct: biotin (biotinylated)
T1 sequence (Q9NYJ7 27-618): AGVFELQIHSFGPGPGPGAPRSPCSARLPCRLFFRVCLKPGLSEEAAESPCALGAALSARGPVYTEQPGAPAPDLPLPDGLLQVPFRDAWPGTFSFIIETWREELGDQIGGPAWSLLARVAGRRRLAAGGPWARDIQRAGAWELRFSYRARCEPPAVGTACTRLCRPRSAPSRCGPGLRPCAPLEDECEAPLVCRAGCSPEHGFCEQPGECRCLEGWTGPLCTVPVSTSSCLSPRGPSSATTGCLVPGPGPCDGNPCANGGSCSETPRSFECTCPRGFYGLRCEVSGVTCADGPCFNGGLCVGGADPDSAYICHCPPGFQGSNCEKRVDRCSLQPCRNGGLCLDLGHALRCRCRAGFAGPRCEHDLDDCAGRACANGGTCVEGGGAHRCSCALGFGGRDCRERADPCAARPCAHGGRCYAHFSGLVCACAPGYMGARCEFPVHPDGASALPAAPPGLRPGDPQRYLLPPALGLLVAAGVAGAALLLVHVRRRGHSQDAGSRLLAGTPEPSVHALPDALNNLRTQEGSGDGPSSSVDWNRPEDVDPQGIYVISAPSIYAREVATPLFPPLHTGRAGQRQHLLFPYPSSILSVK
Procedure, shortened: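 SPR with biotinylated human DLL3 captured on a streptavidin chip, with a reference surface subtracted. Samples were injected at several concentrations at 100 μL/min in phosphate buffer with 137 mM NaCl, 2.7 mM KCl, 0.05% P20 and 2% DMSO. Kinetic and affinity constants came from a 1:1 binding fit.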

Point of comparison: CC(=O)N[C@H](CO)C(=O)N[C@@H](CC(=O)O)C(=O)N[C@H]1CSSC[C@@H](C(=O)N2CCC[C@@]2(C)C(=O)N[C@@H](Cc2ccccc2)C(=O)N[C@@H](CC(=O)O)C(=O)N[C@H](CCCCNC(=O)CN2CCN(CC(=O)O)CCN(CC(=O)O)CCN(CC(=O)O)CC2)C(N)=O)NC(=O)[C@H](CC(N)=O)NC(=O)[C@H](Cc2c[nH]c3ccccc23)NC(=O)[C@H](CCC(N)=O)NC(=O)[C@H](CC2CC2)NC(=O)[C@H](Cc2cccc3ccccc23)NC1=O [compound 140, Ac-(D-Ser)-D-C(3)-(1Nal)-(cPrA)-Q-W-N-C(3)-(aMe-P)-F-D-D-Lys(DOTA)-CONH2] (Ac-[dS]DC[1Nal][Ala(cPr)]QWNC[αMeP]FD[dK](DOTA)-NH2; disulfide 3-9), Kd 1.5 nM. Against it:
- CC(=O)N[C@H](C)C(=O)N[C@@H](CO)C(=O)N[C@@H](CC(=O)O)C(=O)N[C@H]1CSSC[C@@H](C(=O)N2CCC[C@@]2(C)C(=O)N[C@@H](Cc2ccccc2)C(=O)N[C@@H](CC(=O)O)C(=O)N[C@H](CCCCNC(=O)CN2CCN(CC(=O)O)CCN(CC(=O)O)CCN(CC(=O)O)CC2)C(N)=O)NC(=O)[C@H](CC(N)=O)NC(=O)[C@H](Cc2ccc3ccccc3c2)NC(=O)[C@H](C)NC(=O)[C@H](CC(C)(C)C)NC(=O)[C@H](Cc2cccc3ccccc23)NC1=O [compound 165, Ac-(D-Ala)-S-D-C(3)-(1Nal)-(t-Bu-Ala)-Ala-(2Nal)-N-C(3)-(aMe-P)-F-D-[D-Lys(DOTA)]-NH2] (Ac-[dA]SDC[1Nal][tBuAla]A[2Nal]NC[αMeP]FD[dK](DOTA)-NH2; disulfide 4-10) — 16-fold lower, 0.094 nM
- CC(=O)N[C@H](C(=O)N[C@@H](CO)C(=O)N[C@@H](CC(=O)O)C(=O)N[C@H]1CSSC[C@@H](C(=O)N2CCC[C@@]2(C)C(=O)N[C@@H](Cc2ccccc2F)C(=O)N[C@@H](CC(=O)O)C(=O)N[C@H](CCCCNC(=O)CN2CCN(CC(=O)O)CCN(CC(=O)O)CCN(CC(=O)O)CC2)C(N)=O)NC(=O)[C@H](CC(N)=O)NC(=O)[C@H](Cc2c[nH]c3ccccc23)NC(=O)[C@H](CCC(N)=O)NC(=O)[C@H](CC(C)C)NC(=O)[C@H](Cc2cccc3ccccc23)NC1=O)C1CCCCC1 [compound 117, Ac-(Chg)-S-D-C(3)-(1Nal)-L-Q-W-N-C(3)-(aMe-P)-(2F-Phe)-D-D-Lys(DOTA)-CONH2] (Ac-[Chg]SDC[1Nal]LQWNC[αMeP][Phe(2-F)]D[dK](DOTA)-NH2; disulfide 4-10) — 2.3-fold lower, 0.66 nM
- CC(=O)N[C@H](C)C(=O)N[C@@H](CO)C(=O)N[C@@H](CC(=O)O)C(=O)N[C@H]1CSSC[C@@H](C(=O)N2CCC[C@@]2(C)C(=O)N[C@@H](Cc2ccccc2)C(=O)N[C@@H](CC(=O)O)C(=O)N[C@H](CCCCNC(=O)CN2CCN(CC(=O)O)CCN(CC(=O)O)CCN(CC(=O)O)CC2)C(N)=O)NC(=O)[C@H](CC(N)=O)NC(=O)[C@H](Cc2ccc3ccccc3c2)NC(=O)[C@H](CCC(N)=O)NC(=O)[C@H](CC(C)(C)C)NC(=O)[C@H](Cc2cccc3ccccc23)NC1=O [compound 172, Ac-(D-Ala)-S-D-C(3)-(1Nal)-(t-Bu-Ala)-Q-(2Nal)-N-C(3)-(aMe-P)-F -D-[D-Lys(DOTA)]-NH2] (Ac-[dA]SDC[1Nal][tBuAla]Q[2Nal]NC[αMeP]FD[dK](DOTA)-NH2; disulfide 4-10) — 41-fold lower, 0.037 nM
- CSCC[C@H](NC(C)=O)C(=O)N[C@@H](CO)C(=O)N[C@@H](CC(=O)O)C(=O)N[C@H]1CSSC[C@@H](C(=O)N2CCC[C@H]2C(=O)N[C@@H](Cc2ccccc2)C(=O)N[C@@H](CC(=O)O)C(=O)N[C@H](CCCCNC(=O)CN2CCN(CC(=O)O)CCN(CC(=O)O)CCN(CC(=O)O)CC2)C(N)=O)NC(=O)[C@H](CC(N)=O)NC(=O)[C@H](Cc2c[nH]c3ccccc23)NC(=O)[C@H](CCC(N)=O)NC(=O)[C@H](CC(C)C)NC(=O)[C@H](Cc2c[nH]c3ncccc23)NC1=O [compound 57, Ac-M-S-D-C(3)-(7Aza-W)-L-Q-W-N-C(3)-P-F-D-D-Lys(DOTA)-CONH2] (Ac-MSDC[Trp(7-aza)]LQWNCPFD[dK](DOTA)-NH2; disulfide 4-10) — higher, > 300 nM
- CC(=O)N[C@H](C(=O)N[C@@H](CO)C(=O)N[C@@H](CC(=O)O)C(=O)N[C@H]1CSSC[C@@H](C(=O)N2CCC[C@@]2(C)C(=O)N[C@@H](Cc2ccccc2)C(=O)N[C@@H](CC(=O)O)C(=O)N[C@H](CCCCNC(=O)CN2CCN(CC(=O)O)CCN(CC(=O)O)CCN(CC(=O)O)CC2)C(N)=O)NC(=O)[C@H](CC(N)=O)NC(=O)[C@H](Cc2c[nH]c3ccccc23)NC(=O)[C@H](CCC(N)=O)NC(=O)[C@H](C2CCCCC2)NC(=O)[C@H](Cc2cccc3ccccc23)NC1=O)C1CCCCC1 [compound 123, Ac-(Chg)-S-D-C(3)-(1Nal)-Chg-Q-W-N-C(3)-(aMe-P)-F-D-D-Lys(DOTA)-CONH2] (Ac-[Chg]SDC[1Nal][Chg]QWNC[αMeP]FD[dK](DOTA)-NH2; disulfide 4-10) — 4.4-fold lower, 0.34 nM
- CSCC[C@H](NC(C)=O)C(=O)N[C@@H](CO)C(=O)N[C@@H](CC(=O)O)C(=O)N[C@H]1CSSC[C@@H](C(=O)N2C[C@H](F)C[C@H]2C(=O)N[C@@H](Cc2ccccc2)C(=O)N[C@@H](CC(=O)O)C(=O)N[C@H](CCCCNC(=O)CN2CCN(CC(=O)O)CCN(CC(=O)O)CCN(CC(=O)O)CC2)C(N)=O)NC(=O)[C@H](CC(N)=O)NC(=O)[C@H](Cc2c[nH]c3ccccc23)NC(=O)[C@H](CCC(N)=O)NC(=O)[C@H](CC(C)C)NC(=O)[C@H](Cc2c[nH]c3ccccc23)NC1=O [compound 42, Ac-M-S-D-C(3)-W-L-Q-W-N-C(3)-(trans4Fluoro-P)-F-D-D-Lys(DOTA)-CONH2] (Ac-MSDCWLQWNC[Pro(trans-4-F)]FD[dK](DOTA)-NH2; disulfide 4-10) — 6.7-fold higher, 10 nM
- CC(=O)N[C@H](C(=O)N[C@@H](CO)C(=O)N[C@@H](CC(=O)O)C(=O)N[C@H]1CSSC[C@@H](C(=O)N2CCC[C@@]2(C)C(=O)N[C@@H](Cc2cccnc2)C(=O)N[C@@H](CC(=O)O)C(=O)N[C@H](CCCCNC(=O)CN2CCN(CC(=O)O)CCN(CC(=O)O)CCN(CC(=O)O)CC2)C(N)=O)NC(=O)[C@H](CC(N)=O)NC(=O)[C@H](Cc2c[nH]c3ccccc23)NC(=O)[C@H](CCC(N)=O)NC(=O)[C@H](CC(C)C)NC(=O)[C@H](Cc2cccc3ccccc23)NC1=O)C1CCCCC1 [compound 136, Ac-(Chg)-S-D-C(3)-(1Nal)-L-Q-W-N-C(3)-(aMe-P)-(3Pya)-D-[D-Lys(DOTA)]-NH2] (Ac-[Chg]SDC[1Nal]LQWNC[αMeP][3Pal]D[dK](DOTA)-NH2; disulfide 4-10) — 14-fold higher, 21.7 nM
- CC(=O)N[C@H](C)C(=O)N[C@H](CO)C(=O)N[C@@H](CC(=O)O)C(=O)N[C@H]1CSSC[C@@H](C(=O)N2CCC[C@@]2(C)C(=O)N[C@@H](Cc2ccccc2C)C(=O)N[C@@H](CC(=O)O)C(N)=O)NC(=O)[C@H](CC(N)=O)NC(=O)[C@H](Cc2ccc3ccccc3c2)NC(=O)[C@H](CCCCNC(=O)[C@H]2CC[C@H](CNC(=O)CN3CCN(CC(=O)O)CCN(CC(=O)O)CCN(CC(=O)O)CC3)CC2)NC(=O)[C@H](CC(C)(C)C)NC(=O)[C@H](Cc2cccc3ccccc23)NC1=O [Cpd #151, Ac-(D-Ala)-S-D-C(3)-(1Nal)-(t-Bu-Ala)-[L-Lys(Chx-DOTA)]-(2Nal)-N-C(3)-(aMe-P)-(2Me-F)-D-CONH2] (Ac-[dA][dS]DC[1Nal][tBuAla]K([Trx-DOTA])[2Nal]NC[αMeP][Phe(2-Me)]D-NH2; disulfide 4-10) — 5.4-fold lower, 0.28 nM
- CC(=O)N[C@@H](CO)C(=O)N[C@@](C)(CC(=O)O)C(=O)N[C@H]1CCCC[C@@H](C(=O)N2CCC[C@@]2(C)C(=O)N[C@@H](Cc2ccccc2)C(=O)N[C@@H](CC(=O)O)C(N)=O)NC(=O)[C@H](CC(N)=O)NC(=O)[C@H](Cc2ccc3ccccc3c2)NC(=O)[C@H](Cc2ccc(CNC(=O)CN3CCN(CC(=O)O)CCN(CC(=O)O)CCN(CC(=O)O)CC3)cc2)NC(=O)[C@H](CC(C)(C)C)NC(=O)[C@H](Cc2cccc3ccccc23)NC1=O [compound 213, Ac-S-(aMe-Asp)-AllyG(4)*-(1Nal)-(t-Bu-Ala)-[PAF(DOTA)]-(2Nal)-N-AllyG(4)*-(aMe-P)-F-D-CONH2] — 3.6-fold lower, 0.419 nM
- CC(=O)N[C@H](C(=O)N[C@@H](CO)C(=O)N[C@@H](CC(=O)O)C(=O)N[C@H]1CSSC[C@@H](C(=O)N2CCC[C@@]2(C)C(=O)N[C@@H](Cc2ccccc2)C(=O)N[C@@H](CC(=O)O)C(N)=O)NC(=O)[C@H](CC(N)=O)NC(=O)[C@H](Cc2ccc3ccccc3c2)NC(=O)[C@H](CCCCNC(=O)CN2CCN(CC(=O)O)CCN(CC(=O)O)CCN(CC(=O)O)CC2)NC(=O)[C@H](CC(C)(C)C)NC(=O)[C@H](Cc2cccc3ccccc23)NC1=O)C1CCCCC1 [compound 174, Ac-(Chg)-S-D-C(3)-(1Nal)-(t-Bu-Ala)-[L-Lys(DOTA)]-(2Nal)-N-C(3)-(aMe-P)-F -D-CONH2] (Ac-[Chg]SDC[1Nal][tBuAla]K(DOTA)[2Nal]NC[αMeP]FD-NH2; disulfide 4-10) — 6.5-fold lower, 0.23 nM
